Converted amounts (≈) assume the structure as drawn.
Tests used:
[1] = Growth inhibition of human GRC1 cells at 1 g/L after 96 hrs by MTT assay relative to control; format: functional; conditions: read-out: GI
U-266 = assay: Antiproliferative activity against human U266 cells after 48 hrs by MTT assay; format: functional, cell-based; conditions: U-266, 48 h
HT-29 [2] = assay: Growth inhibition of human HT-29 cells at 4 ml/L after 48 hrs by MTT assay relative to control; format: functional
HepG2 = assay: Antiproliferative activity against human HepG2 cells at 1 mg/ml after 48 hrs relative to control; format: functional
D341 cell line [3] = assay: Growth inhibition of human D341 cells at 1.5 mg/ml after 72 hrs by CCK8 assay relative to control; format: functional; conditions: D341, 72 h, read-out: GI
Bel-7402 = assay: Antiproliferative activity against human Bel7402 cells after 48 hrs by MTT assay; format: functional, cell-based; conditions: Bel-7402, 48 h
HT-29 [4] = assay: Growth inhibition of human HT-29 cells at 32 mg/ml after 48 hrs by MTT assay relative to control; format: functional; conditions: HT-29, 48 h, read-out: GI
HT-29 [5] = assay: Growth inhibition of human HT-29 cells at 8 ml/L after 24 hrs by MTT assay relative to control; format: functional
MCF7 [6] = assay: Induction of apoptosis in human MCF7 cells at 0.25 to 2 mg/ml (reference value: 1.1 +/- 0.08%); format: functional
HT-29 [7] = assay: Growth inhibition of human HT-29 cells at 4 ml/L after 24 hrs by MTT assay relative to control; format: functional
HT-29 [8] = assay: Growth inhibition of human HT-29 cells after 24 hrs by MTT assay; format: functional, cell-based; conditions: HT-29, 24 h
KYSE-150 cell line = assay: Antiproliferative activity against human KYSE-150 cells assessed as cell viability at 1.5 mg/ml after 24 hrs by MTT assay relative to control; format: functional; conditions: KYSE-150, 24 h, read-out: Activity
D341 cell line [9] = assay: Growth inhibition of human D341 cells at 2 mg/ml after 48 hrs by CCK8 assay relative to control; format: functional; conditions: D341, 48 h, read-out: GI
MG-63 [10] = assay: Growth inhibition of human MG63 cells at 3.2 mg/ml after 48 hrs by MTT assay relative to control; format: functional; conditions: MG-63, 48 h, read-out: GI
[11] = Growth inhibition of human GRC1 cells at 0.3 g/L after 24 hrs by MTT assay relative to control; format: functional; conditions: read-out: GI
[12] = Growth inhibition of human GRC1 cells at 1 g/L after 72 hrs by MTT assay relative to control; format: functional; conditions: read-out: GI
HL-60 = assay: Induction of apoptosis in human HL60 cells after 24 hrs by Annexin V-FITC/propidium iodide staining based flow cytometry relative to control; format: functional
T-24 = assay: Antiproliferative activity against human T24 cells after 48 hrs by CCK8 assay; format: functional, cell-based; conditions: T-24, 48 h
SGC-7901 = assay: Growth inhibition of human SGC7901 cells at 60 mg/ml after 72 hrs by MTT assay relative to control; format: functional; conditions: SGC-7901, 72 h, read-out: GI
PANC-1 = assay: Induction of apoptosis in human PANC1 cells at 0.75 mg/ml by flow cytometry (reference value: 4.13%); format: functional
A549 [13] = assay: Antiproliferative activity against human A549 cells at 1 mg/ml relative to control; format: functional
NB-4 = assay: Induction of apoptosis in human NB4 cells after 24 hrs by Annexin V-FITC/propidium iodide staining based flow cytometry relative to control; format: functional
UMR108 [14] = assay: Growth inhibition of rat UMR108 cells assessed as cell proliferation at 0.5 mg/ml after 24 hrs by MTT assay (reference value: 0.405 +/- 0.007%); format: functional; conditions: UMR108, 24 h, read-out: Activity
EJ = assay: Antiproliferative activity against human EJ cells after 48 hrs by CCK8 assay; format: functional, cell-based
C-33-A [15] = assay: Induction of apoptosis in human C33A cells at 25 ug/ml after 48 hrs by Annexin V-FITC/propidium iodide staining based flow cytometry relative to control; format: functional
RPMI-8226 [16] = assay: Growth inhibition of human RPMI8226 cells at 500 mg/L after 48 hrs by MTT assay relative to control; format: functional; conditions: RPMI-8226, 48 h, read-out: GI
MG-63 [17] = assay: Growth inhibition of human MG63 cells at 0.8 mg/ml after 48 hrs by MTT assay relative to control; format: functional; conditions: MG-63, 48 h, read-out: GI
[18] = Antiproliferative activity against human GBC-SD cells assessed as cell survival at 1 mmol/L up to 72 hrs by MTT assay (reference value: 100%); format: functional; conditions: read-out: Survival
UMR108 [19] = assay: Growth inhibition of rat UMR108 cells assessed as cell proliferation at 1.5 mg/ml after 72 hrs by MTT assay (reference value: 0.403 +/- 0.009%); format: functional; conditions: UMR108, 72 h, read-out: Activity
HT-29 [20] = assay: Synergistic growth inhibition of human HT-29 cells at 2 mg/ml cotreated with 10 ug/ml irinotecan by MTT assay relative to control; format: functional
MCF7 [21] = assay: Antiproliferative activity against human MCF7 cells after 48 hrs relative to control; format: functional
A549 [22] = assay: Antiproliferative activity against human A549 cells at 2 g/L after 48 hrs by MTT assay relative to control; format: functional
HT-29 [23] = assay: Synergistic growth inhibition of human HT-29 cells at 1 mg/ml cotreated with 5 ug/ml irinotecan by MTT assay relative to control; format: functional
MCF7 [24] = assay: Antiproliferative activity against human MCF7 cells after 72 hrs relative to control; format: functional
D341 cell line [25] = assay: Induction of apoptosis in human D341 cells at 0.5 to 2 mg/ml after 24 to 72 hrs by Annexin V-FITC/propidium iodide staining based flow cytometry (reference value: 5.74 +/- 0.09%); format: functional
UMR108 [26] = assay: Growth inhibition of rat UMR108 cells assessed as cell proliferation at 1 mg/ml after 24 hrs by MTT assay (reference value: 0.405 +/- 0.007%); format: functional; conditions: UMR108, 24 h, read-out: Activity
HT-29 [27] = assay: Growth inhibition of human HT-29 cells at 8 ml/L after 48 hrs by MTT assay relative to control; format: functional
PC-3 = assay: Induction of apoptosis in human PC3 cells assessed as late apoptotic cells at 75 mg/mL (reference value: 2.5%); format: functional
U-937 = assay: Antiproliferative activity against human U937 cells after 24 hrs by MTT assay; format: functional, cell-based; conditions: U-937, 24 h
C-33-A [28] = assay: Induction of apoptosis in human C33A cells at 100 ug/ml after 48 hrs by Annexin V-FITC/propidium iodide staining based flow cytometry relative to control; format: functional
MM1.S = assay: Growth inhibition of human MM1S cells at […] after 24 hrs relative to control; format: functional; conditions: read-out: GI
[29] = Growth inhibition of human GRC1 cells at 0.5 g/L after 72 hrs by MTT assay relative to control; format: functional; conditions: read-out: GI
RPMI-8226 [30] = assay: Induction of apoptosis in human RPMI8226 cells at 500 mg/L after 48 hrs by Annexin V/propidium iodide staining based flow cytometry (reference value: 3.02 +/- 1.19%); format: functional

O=C1CCC[C@@H]2[C@H]3CCCN4CCC[C@@H](CN12)[C@@H]34 [MATRINE]
inhibition of growth at 1000 µg/mL [1]: 45.8% | IC50 (U-266): 1580 µg/mL (≈ 6.36 mM) | growth inhibition (GI) (HT-29 [2]): 54.22% | Activity (HepG2): 48.39% | inhibition of growth at 1500 µg/mL (D341 cell line [3]): 47.5% | IC50 (Bel-7402): 3.22 mM | inhibition of growth at 32000 µg/mL (HT-29 [4]): 84.2% | growth inhibition (GI) (HT-29 [5]): 45.96% | Activity (MCF7 [6]): 4.17 - 19.63% | growth inhibition (GI) (HT-29 [7]): 17.88% | IC50 (HT-29 [8]): 6.32 to 50.3 mM | viability at 1500 µg/mL (KYSE-150 cell line): 64% | inhibition of growth at 2000 µg/mL (D341 cell line [9]): 47.2% | inhibition of growth at 3200 µg/mL (MG-63 [10]): 86% | inhibition of growth at 300 µg/mL [11]: 6.3% | inhibition of growth at 1000 µg/mL [12]: 29.2% | Activity (HL-60): 41.1% | IC50 (T-24): 4.6 mM | inhibition of growth at 60000 µg/mL (SGC-7901): 40% | Activity (PANC-1): 24.56% | Activity (A549 [13]): 52.68% | Activity (NB-4): 33% | growth at 500 µg/mL (UMR108 [14]): 0.324% | IC50 (EJ): 5.09 mM | Activity (C-33-A [15]): 5.31% | inhibition of growth at 500 µg/mL (RPMI-8226 [16]): 17.9% | inhibition of growth at 800 µg/mL (MG-63 [17]): 20% | viability at 1000 µM [18]: 72.1% | growth at 1500 µg/mL (UMR108 [19]): 0.147% | growth inhibition (GI) (HT-29 [20]): 95.29% | Activity (MCF7 [21]): 7.56 - 53.92% | Activity (A549 [22]): 20% | growth inhibition (GI) (HT-29 [23]): 87.61% | Activity (MCF7 [24]): 10.86 - 70.23% | Activity (D341 cell line [25]): 56.1% | growth at 1000 µg/mL (UMR108 [26]): 0.298% | growth inhibition (GI) (HT-29 [27]): 68.29% | Activity (PC-3): 15.1% | IC50 (U-937): 0.00237 mM | Activity (C-33-A [28]): 28.91% | inhibition of growth at 2 g/mL (MM1.S): 73% | inhibition of growth at 500 µg/mL [29]: 21.9% | Activity (RPMI-8226 [30]): 9.75%
